# Reference: patent US20140309244A1, “NOVEL MICROBIOCIDES” (SYNGENTA PARTICIPATIONS AG, priority 2010, published 2014)
# System: Puccinia recondita f. sp. tritici
# Assay: Puccinia recondita f. sp. tritici / wheat / leaf disc preventative (brown rust)
# Format: in vivo
# Conditions: foliar, wheat cv Kanzler leaf segments, inoculated 1 day after application, assessed 7-9 days after application, read-out: control of Puccinia recondita f. sp. tritici (percent disease control compared to untreated)
# Protocol: Puccinia recondita f. sp. tritici/Wheat/Leaf Disc Preventative (Brown Rust) Wheat leaf segments cultivated variety (cv) Kanzler were placed on agar in 24-well plates and sprayed with formulated test compound diluted in water at an application rate of 200 ppm. The leaf disks were inoculated with a spore suspension of the fungus 1 day after application. The inoculated leaf segments were incubated at 19° C. and 75% relative humidity under a light regime of 12/12 h (light/dark) in a climate cabinet and the activity of a compound was assessed as percent disease control compared to untreated when an appropriate level of disease damage appears in untreated check leaf segments (7-9 days after application). […].103
row,SMILES,pest or weed control at 200 ppm [%]
1,CO/N=C(\C)c1cc(OC)cc(CCCO/N=C(\C)c2cccc(C)n2)n1 [P.103],≥ 80

# System: Puccinia recondita f. sp. tritici
# Assay: Puccinia recondita f. sp. tritici / wheat / leaf disc curative (brown rust)
# Format: in vivo
# Conditions: foliar, wheat cv Kanzler leaf segments, applied 1 day after inoculation, assessed 6-8 days after application, read-out: control of Puccinia recondita f. sp. tritici (percent disease control compared to untreated)
# Protocol: Puccinia recondita f. sp. tritici/Wheat/Leaf Disc Curative (Brown Rust): Wheat leaf segments cv Kanzler were placed on agar in 24-well plates. The leaf segments were inoculated with a spore suspension of the fungus. The plates were stored in darkness at 19° C. and 75% relative humidity. The formulated test compound diluted in water was applied at an application rate of 200 ppm 1 day after inoculation.
row,SMILES,pest or weed control at 200 ppm [%]
1,C#CCO/N=C(\C)c1cccc(CCCO/N=C(\C)c2cccc(C)n2)n1 [P.02],≥ 80
2,CCc1cccc(/C(C)=N/OCCCc2cccc(/C(C)=N/OC)n2)n1 [P.19],≥ 80
3,CO/N=C(\C)c1cccc(CCCO/N=C2\CCCc3ccc(OC)nc32)n1 [P.56],≥ 80
4,CO/N=C(\C)c1cc(OC)cc(CCCO/N=C(\C)c2cccc(C)n2)n1 [P.103],≥ 80

# System: Phaeosphaeria nodorum (Septoria nodorum)
# Assay: Phaeosphaeria nodorum (Septoria nodorum) / wheat / leaf disc preventative (glume blotch)
# Format: in vivo
# Conditions: Parastagonospora nodorum, foliar, wheat cv Kanzler leaf segments, inoculated 2 days after application, assessed 5-7 days after application, read-out: control of Phaeosphaeria nodorum (percent disease control compared to untreated)
row,SMILES,pest or weed control at 200 ppm [%]
1,C#CCO/N=C(\C)c1cccc(CCCO/N=C(\C)c2cccc(C)n2)n1 [P.02],≥ 80
2,CCc1cccc(/C(C)=N/OCCCc2cccc(/C(C)=N/OC)n2)n1 [P.19],≥ 80
3,CO/N=C(\C)c1cccc(CCCO/N=C(/c2ccccn2)c2ncc(C(F)(F)F)cc2Cl)n1 [P.51],≥ 80
4,CO/N=C(\C)c1cccc(CCCO/N=C2\CCCc3ccc(OC)nc32)n1 [P.56],≥ 80
5,CO/N=C(\C)c1cccc(CCCO/N=C2\CCCc3c2nc2ccc(Br)cc2c3C)n1 [P.84],≥ 80
6,CO/N=C(\C)c1cccc(CCCO/N=C2\CCCc3c2nc2ccccc2c3Cl)n1 [P.95],≥ 80
7,CO/N=C(\C)c1cc(OC)cc(CCCO/N=C(\C)c2cccc(C)n2)n1 [P.103],≥ 80

# System: Pyrenophora teres
# Assay: Pyrenophora teres / barley / leaf disc preventative (net blotch)
# Format: in vivo
# Conditions: foliar, barley cv Hasso leaf segments, inoculated two days after application, assessed 5-7 days after application, read-out: control of Pyrenophora teres (disease control compared to untreated)
row,SMILES,pest or weed control at 200 ppm [%]
1,"CO/N=C(/c1cccc(CCCO/N=C(\C)c2cccc(C)n2)n1)C(C)C (single isomer, unassigned) [P.23A]",≥ 80
2,CCc1cccc(/C(C)=N/OCCCc2cccc(/C(C)=N/OC)n2)n1 [P.19],≥ 80
3,CO/N=C(\C)c1cccc(CCCO/N=C2\CCCc3c2nc2cc(Cl)ccc2c3C)n1 [P.83],≥ 80
4,CO/N=C(\C)c1cccc(CCCO/N=C2\CCCc3c2nc2ccc(Br)cc2c3C)n1 [P.84],≥ 80
5,CO/N=C(\C)c1cccc(CCCO/N=C2\CCCc3c2nc2ccccc2c3Cl)n1 [P.95],≥ 80
6,CO/N=C(\C)c1cc(OC)cc(CCCO/N=C(\C)c2cccc(C)n2)n1 [P.103],≥ 80

# System: Botryotinia fuckeliana (Botrytis cinerea)
# Assay: Botryotinia fuckeliana (Botrytis cinerea) / liquid culture (gray mould)
# Format: cell-based
# Conditions: Vogels broth, 96-well plate, 24° C., 3-4 days after application, read-out: control of Botryotinia fuckeliana (inhibition of growth, photometric)
row,SMILES,inhibition at 200 ppm [%]
1,"CO/N=C(/c1cccc(CCCO/N=C(\C)c2cccc(C)n2)n1)C(C)C (single isomer, unassigned) [P.23A]",≥ 80
2,C#CCO/N=C(\C)c1cccc(CCCO/N=C(\C)c2cccc(C)n2)n1 [P.02],≥ 80
3,CCc1cccc(/C(C)=N/OCCCc2cccc(/C(C)=N/OC)n2)n1 [P.19],≥ 80
4,CO/N=C(\C)c1cccc(CCCO/N=C(/c2ccccn2)c2ncc(C(F)(F)F)cc2Cl)n1 [P.51],≥ 80
5,CO/N=C(\C)c1cccc(CCCO/N=C2\CCCc3ccc(OC)nc32)n1 [P.56],≥ 80
6,CO/N=C(\C)c1cccc(CCCO/N=C2\CCCc3c2nc2cc(Cl)ccc2c3C)n1 [P.83],≥ 80
7,CO/N=C(\C)c1cccc(CCCO/N=C2\CCCc3c2nc2ccc(Br)cc2c3C)n1 [P.84],≥ 80
8,CO/N=C(\C)c1cccc(CCCO/N=C2\CCCc3c2nc2ccccc2c3Cl)n1 [P.95],≥ 80
9,CO/N=C(\C)c1cc(OC)cc(CCCO/N=C(\C)c2cccc(C)n2)n1 [P.103],≥ 80

# System: Glomerella lagenarium (Colletotrichum lagenarium)
# Assay: Glomerella lagenarium (Colletotrichum lagenarium) / liquid culture (anthracnose)
# Format: cell-based
# Conditions: Colletotrichum orbiculare, PDB potato dextrose broth, 96-well plate, 24° C., 3-4 days after application, read-out: control of Glomerella lagenarium (inhibition of growth, photometric)
row,SMILES,inhibition at 200 ppm [%]
1,CO/N=C(\C)c1cccc(CCCO/N=C(/c2ccccn2)c2ncc(C(F)(F)F)cc2Cl)n1 [P.51],≥ 80
2,CO/N=C(\C)c1cccc(CCCO/N=C2\CCCc3ccc(OC)nc32)n1 [P.56],≥ 80
3,CO/N=C(\C)c1cccc(CCCO/N=C2\CCCc3c2nc2cc(Cl)ccc2c3C)n1 [P.83],≥ 80
4,CO/N=C(\C)c1cccc(CCCO/N=C2\CCCc3c2nc2ccc(Br)cc2c3C)n1 [P.84],≥ 80
5,CO/N=C(\C)c1cccc(CCCO/N=C2\CCCc3c2nc2ccccc2c3Cl)n1 [P.95],≥ 80
6,CO/N=C(\C)c1cc(OC)cc(CCCO/N=C(\C)c2cccc(C)n2)n1 [P.103],≥ 80

# System: Mycosphaerella arachidis (Cercospora arachidicola)
# Assay: Mycosphaerella arachidis (Cercospora arachidicola) / liquid culture (early leaf spot)
# Format: cell-based
# Conditions: PDB potato dextrose broth, 96-well plate, 24° C., 4-5 days after application, read-out: control of Mycosphaerella arachidis (inhibition of growth, photometric)
row,SMILES,inhibition at 200 ppm [%]
1,"CO/N=C(/c1cccc(CCCO/N=C(\C)c2cccc(C)n2)n1)C(C)C (single isomer, unassigned) [P.23A]",≥ 80
2,C#CCO/N=C(\C)c1cccc(CCCO/N=C(\C)c2cccc(C)n2)n1 [P.02],≥ 80
3,CCc1cccc(/C(C)=N/OCCCc2cccc(/C(C)=N/OC)n2)n1 [P.19],≥ 80
4,CO/N=C(\C)c1cccc(CCCO/N=C(/c2ccccn2)c2ncc(C(F)(F)F)cc2Cl)n1 [P.51],≥ 80
5,CO/N=C(\C)c1cccc(CCCO/N=C2\CCCc3ccc(OC)nc32)n1 [P.56],≥ 80
6,CO/N=C(\C)c1cccc(CCCO/N=C2\CCCc3c2nc2cc(Cl)ccc2c3C)n1 [P.83],≥ 80
7,CO/N=C(\C)c1cccc(CCCO/N=C2\CCCc3c2nc2ccc(Br)cc2c3C)n1 [P.84],≥ 80
8,CO/N=C(\C)c1cccc(CCCO/N=C2\CCCc3c2nc2ccccc2c3Cl)n1 [P.95],≥ 80
9,CO/N=C(\C)c1cc(OC)cc(CCCO/N=C(\C)c2cccc(C)n2)n1 [P.103],≥ 80

# System: Mycosphaerella graminicola (Septoria tritici)
# Assay: Mycosphaerella graminicola (Septoria tritici) / liquid culture (Septoria blotch)
# Format: cell-based
# Conditions: Zymoseptoria tritici, PDB potato dextrose broth, 96-well plate, 24° C., 4-5 days after application, read-out: control of Mycosphaerella graminicola (inhibition of growth, photometric)
row,SMILES,inhibition at 200 ppm [%]
1,"CO/N=C(/c1cccc(CCCO/N=C(\C)c2cccc(C)n2)n1)C(C)C (single isomer, unassigned) [P.23A]",≥ 80
2,C#CCO/N=C(\C)c1cccc(CCCO/N=C(\C)c2cccc(C)n2)n1 [P.02],≥ 80
3,CCc1cccc(/C(C)=N/OCCCc2cccc(/C(C)=N/OC)n2)n1 [P.19],≥ 80
4,CO/N=C(\C)c1cccc(CCCO/N=C(/c2ccccn2)c2ncc(C(F)(F)F)cc2Cl)n1 [P.51],≥ 80
5,CO/N=C(\C)c1cccc(CCCO/N=C2\CCCc3ccc(OC)nc32)n1 [P.56],≥ 80
6,CO/N=C(\C)c1cccc(CCCO/N=C2\CCCc3c2nc2cc(Cl)ccc2c3C)n1 [P.83],≥ 80
7,CO/N=C(\C)c1cccc(CCCO/N=C2\CCCc3c2nc2ccc(Br)cc2c3C)n1 [P.84],≥ 80
8,CO/N=C(\C)c1cccc(CCCO/N=C2\CCCc3c2nc2ccccc2c3Cl)n1 [P.95],≥ 80
9,CO/N=C(\C)c1cc(OC)cc(CCCO/N=C(\C)c2cccc(C)n2)n1 [P.103],≥ 80

# System: Gaeumannomyces graminis
# Assay: Gaeumannomyces graminis / liquid culture (take-all of cereals)
# Format: cell-based
# Conditions: liquid culture of mycelial fragments, PDB potato dextrose broth, 96-well plate, 24° C., 4-5 days after application, read-out: control of Gaeumannomyces graminis (inhibition of growth, photometric)
row,SMILES,inhibition at 200 ppm [%]
1,"CO/N=C(/c1cccc(CCCO/N=C(\C)c2cccc(C)n2)n1)C(C)C (single isomer, unassigned) [P.23A]",≥ 80
2,C#CCO/N=C(\C)c1cccc(CCCO/N=C(\C)c2cccc(C)n2)n1 [P.02],≥ 80
3,CO/N=C(\C)c1cccc(CCCO/N=C(/c2ccccn2)c2ncc(C(F)(F)F)cc2Cl)n1 [P.51],≥ 80
4,CO/N=C(\C)c1cccc(CCCO/N=C2\CCCc3ccc(OC)nc32)n1 [P.56],≥ 80
5,CO/N=C(\C)c1cccc(CCCO/N=C2\CCCc3c2nc2cc(Cl)ccc2c3C)n1 [P.83],≥ 80
6,CO/N=C(\C)c1cccc(CCCO/N=C2\CCCc3c2nc2ccc(Br)cc2c3C)n1 [P.84],≥ 80
7,CO/N=C(\C)c1cccc(CCCO/N=C2\CCCc3c2nc2ccccc2c3Cl)n1 [P.95],≥ 80
8,CO/N=C(\C)c1cc(OC)cc(CCCO/N=C(\C)c2cccc(C)n2)n1 [P.103],≥ 80

# System: Thanatephorus cucumeris (Rhizoctonia solani)
# Assay: Thanatephorus cucumeris (Rhizoctonia solani) / liquid culture (foot rot, damping-off)
# Format: cell-based
# Conditions: liquid culture of mycelia fragments, PDB potato dextrose broth, 96-well plate, 24° C., 3-4 days after application, read-out: control of Thanatephorus cucumeris (inhibition of growth, photometric)
# Protocol: Thanatephorus cucumeris (Rhizoctonia solani)/Liquid Culture (Foot Rot, Damping-Off): Mycelia fragments of a newly grown liquid culture of the fungus are directly mixed into nutrient broth (PDB potato dextrose broth). After placing a DMSO solution of the test compounds into a 96-well microtiter plate at an application rate of 200 ppm, the nutrient broth containing the fungal material was added. The test plates were incubated at 24° C. and the inhibition of growth was determined photometrically 3-4 days after application.
row,SMILES,inhibition at 200 ppm [%]
1,CCc1cccc(/C(C)=N/OCCCc2cccc(/C(C)=N/OC)n2)n1 [P.19],≥ 80
2,CO/N=C(\C)c1cccc(CCCO/N=C(/c2ccccn2)c2ncc(C(F)(F)F)cc2Cl)n1 [P.51],≥ 80
3,CO/N=C(\C)c1cccc(CCCO/N=C2\CCCc3ccc(OC)nc32)n1 [P.56],≥ 80
4,CO/N=C(\C)c1cccc(CCCO/N=C2\CCCc3c2nc2ccccc2c3Cl)n1 [P.95],≥ 80

# System: Monographella nivalis (Microdochium nivale)
# Assay: Monographella nivalis (Microdochium nivale) / liquid culture (foot rot cereals)
# Format: cell-based
# Conditions: PDB potato dextrose broth, 96-well plate, 24° C., 4-5 days after application, read-out: control of Monographella nivalis (inhibition of growth, photometric)
# Protocol: Monographella nivalis (Microdochium nivale)/Liquid Culture (Foot Rot Cereals): Conidia of the fungus from cryogenic storage were directly mixed into nutrient broth (PDB potato dextrose broth). After placing a DMSO solution of test compound into a 96-well microtiter plate at an application rate of 200 ppm, the nutrient broth containing the fungal spores was added. The test plates were incubated at 24° C. and the inhibition of growth was determined photometrically 4-5 days after application. […].103
row,SMILES,inhibition at 200 ppm [%]
1,C#CCO/N=C(\C)c1cccc(CCCO/N=C(\C)c2cccc(C)n2)n1 [P.02],≥ 80
2,CO/N=C(\C)c1cccc(CCCO/N=C(/c2ccccn2)c2ncc(C(F)(F)F)cc2Cl)n1 [P.51],≥ 80
3,CO/N=C(\C)c1cccc(CCCO/N=C2\CCCc3ccc(OC)nc32)n1 [P.56],≥ 80
4,CO/N=C(\C)c1cccc(CCCO/N=C2\CCCc3c2nc2ccccc2c3Cl)n1 [P.95],≥ 80
5,CO/N=C(\C)c1cc(OC)cc(CCCO/N=C(\C)c2cccc(C)n2)n1 [P.103],≥ 80

# System: Blumeria graminis f. sp. tritici (Erysiphe graminis f. sp. tritici)
# Assay: Blumeria graminis f. sp. tritici (Erysiphe graminis f. sp. tritici) / wheat / leaf disc preventative (powdery mildew on wheat)
# Format: in vivo
# Conditions: foliar, wheat cv. Kanzler leaf segments, inoculated 1 day after application, assessed 6-8 days after application, read-out: control of Blumeria graminis (percent disease control compared to untreated)
row,SMILES,pest or weed control at 200 ppm [%]
1,"CO/N=C(/c1cccc(CCCO/N=C(\C)c2cccc(C)n2)n1)C(C)C (single isomer, unassigned) [P.23A]",≥ 80
2,CO/N=C(\C)c1cccc(CCCO/N=C2\CCCc3ccc(OC)nc32)n1 [P.56],≥ 80
3,CO/N=C(\C)c1cccc(CCCO/N=C2\CCCc3c2nc2cc(Cl)ccc2c3C)n1 [P.83],≥ 80
4,CO/N=C(\C)c1cccc(CCCO/N=C2\CCCc3c2nc2ccc(Br)cc2c3C)n1 [P.84],≥ 80
5,CO/N=C(\C)c1cc(OC)cc(CCCO/N=C(\C)c2cccc(C)n2)n1 [P.103],≥ 80
